Assay results reported in publication PMC11358443, “Polymodal K^+ channel modulation contributes to dual analgesic and anti-inflammatory actions of traditional botanical medicines” (Communications Biology, 2024).

Columns and labels:
Kv1.3 Mutant 3 = Kv1.3 Mutant 3 (Homo sapiens, UniProt P22001, H451V/V453T); experiment: TEVC electrophysiology, oocytes expressing Kv1.3 Mutant 3 (Kv1.2 selectivity filter-S6 linker residues); type: cell-based
Source text: To test whether the predicted different binding poses of tannic acid to Kv1.2 and Kv1.3 could explain the contrasting functional effects on these two channels, we made three mutant forms of Kv1.3, introducing Kv1.2 residues into the Kv1.3 turret loop (Mutant 1), pore helix (Mutant 2) and selectivity filter-S6 linker (Mutant 3) (Fig. 9A, B). Mutant 2 was nonfunctional (Fig. 9C); the single residue in this mutant was inaccessible to tannic acid as it was deep inside the pore and was not predicted therefore to interact with tannic acid (Fig. 8).
(§1) We generated human potassium channel cRNA transcripts with the mMessage mMachine kit (Thermo Fisher Scientific, Waltham, MA, USA) according to manufacturer’s instructions, after vector linearization, from cDNA sub-cloned into expression vectors (pTLNx, pXOOM and pMAX). We injected Xenopus laevis oocytes (Xenoocyte, Dexter, MI, USA) with the channel cRNAs (0.5–10 ng) and incubated the oocytes at 16 °C for 1–4 days prior to electrophysiological recording.
(§2) We performed TEVC at 20–23 °C with an OC-725C amplifier (Warner Instruments, Hamden, CT, USA) and pClamp10 software. Chemicals for recording and oocyte storage solutions were from Sigma-Aldrich (St. Louis, MO). Bath solution contained (in mM): 96 NaCl, 4 KCl, 1 MgCl2, 1 CaCl2, 10 HEPES (pH 7.6). Pipettes were 1–2 MΩ resistance when filled with 3 M KCl. We recorded currents in response to voltage pulses between −120 mV or −80 mV and +40 mV at 10 mV intervals from a holding potential of −80 mV, to yield current–voltage relationships and examine activation kinetics. We recorded and analyzed data using Clampfit (Molecular Devices, Sunnyvale, CA, USA) and Graphpad Prism software (GraphPad, San Diego, CA, USA), stating values as mean ± SEM. We calculated the voltage dependence of activation (V0.5) by measuring tail currents at a voltage pulse of −30 mV (Kv7) or −50 mV (Kv1), then fitted the tail current/voltage relationship with a single Boltzmann function:1 g=(A1−A2)/{1+exp[V1/2−V/Vs]}y+A2 where g is the normalized tail conductance, A1 is the initial value at −∞, A2 is the final value at +∞, V1/2 is the half-maximal voltage of activation and Vs the slope factor. We fitted activation and deactivation kinetics with single exponential functions.
For wild-type and mutant Kv1.3 channels we calculated conductance–voltage curves from current–voltage relationships recorded in response to voltage pulses between −80 mV to +40 mV in 10 mV intervals from a holding potential of −80 mV. The conductance was calculated by subtracting the driving force (EK):2 Ek=xlnK^+i/K^+o

TREK-1 (KCNK2) = target: T1, TREK-1 (KCNK2) (Homo sapiens, UniProt O95069); experiment: TEVC electrophysiology, Xenopus oocytes expressing TREK-1; type: cell-based
T1 sequence (O95069 1-426): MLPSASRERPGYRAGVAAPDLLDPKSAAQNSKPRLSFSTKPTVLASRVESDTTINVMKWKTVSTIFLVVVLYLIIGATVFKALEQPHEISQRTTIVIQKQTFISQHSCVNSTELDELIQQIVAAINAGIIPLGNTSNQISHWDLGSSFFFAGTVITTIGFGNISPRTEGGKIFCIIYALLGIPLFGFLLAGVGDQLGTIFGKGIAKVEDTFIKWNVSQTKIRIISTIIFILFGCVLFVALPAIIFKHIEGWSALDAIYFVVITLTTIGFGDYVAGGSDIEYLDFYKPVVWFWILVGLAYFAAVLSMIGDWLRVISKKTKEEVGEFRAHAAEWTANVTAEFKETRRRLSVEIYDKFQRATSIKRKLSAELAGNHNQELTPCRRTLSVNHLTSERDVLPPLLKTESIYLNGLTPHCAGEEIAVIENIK
Experimental: as §1, §2

Sequence of Kv1.3 Mutant 3 (P22001 whole entry H451V/V453T): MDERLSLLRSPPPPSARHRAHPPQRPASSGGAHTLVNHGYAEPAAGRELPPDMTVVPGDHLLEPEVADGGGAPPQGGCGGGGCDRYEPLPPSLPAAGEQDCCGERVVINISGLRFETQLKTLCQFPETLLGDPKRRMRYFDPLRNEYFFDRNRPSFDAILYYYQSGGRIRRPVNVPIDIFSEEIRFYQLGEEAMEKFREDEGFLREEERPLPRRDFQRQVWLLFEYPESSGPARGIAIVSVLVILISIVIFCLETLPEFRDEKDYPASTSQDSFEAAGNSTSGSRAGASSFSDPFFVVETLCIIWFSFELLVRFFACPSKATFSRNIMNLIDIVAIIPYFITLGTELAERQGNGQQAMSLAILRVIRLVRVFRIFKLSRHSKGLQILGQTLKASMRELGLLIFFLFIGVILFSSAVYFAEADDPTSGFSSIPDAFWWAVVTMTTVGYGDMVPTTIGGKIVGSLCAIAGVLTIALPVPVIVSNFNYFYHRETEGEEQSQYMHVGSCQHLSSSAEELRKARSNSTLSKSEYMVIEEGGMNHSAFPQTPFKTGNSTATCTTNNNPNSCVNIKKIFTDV

tannic acid
Slope (Kv1.3 Mutant 3; 0.1 µM tannic acid, control 2.50 ± 0.70): 4.01 ± 0.35 mV
Current at 0 (mV) (Kv1.3 Mutant 3; 0.1 µM tannic acid, control 3.39 ± 0.48): 4.20 ± 0.53
V0.5 Normalized tail current (Kv1.3 Mutant 3; 0.1 µM tannic acid, control -31.00 ± 0.53): -30.20 ± 0.78 mV
Current at 0 (mV) (Kv1.3 Mutant 3; 1 µM tannic acid): 4.44 ± 0.64
Slope (Kv1.3 Mutant 3; 1 µM tannic acid): 3.67 ± 0.41 mV
V0.5 Normalized tail current (Kv1.3 Mutant 3; 1 µM tannic acid): -30.51 ± 0.97 mV
Current at 0 (mV) (Kv1.3 Mutant 3; 3 µM tannic acid): 4.25 ± 0.64
Slope (Kv1.3 Mutant 3; 3 µM tannic acid): 4.85 ± 0.24 mV
V0.5 Normalized tail current (Kv1.3 Mutant 3; 3 µM tannic acid): -30.85 ± 1.34 mV
Current at 0 (mV) (Kv1.3 Mutant 3; 10 µM tannic acid): 2.28 ± 0.38
Slope (Kv1.3 Mutant 3; 10 µM tannic acid): 6.40 ± 0.62 mV
V0.5 Normalized tail current (Kv1.3 Mutant 3; 10 µM tannic acid): -29.05 ± 1.94 mV
Current at 0 (mV) (Kv1.3 Mutant 3; 30 µM tannic acid): 0.88 ± 0.13
Slope (Kv1.3 Mutant 3; 30 µM tannic acid): 14.11 ± 1.75 mV
V0.5 Normalized tail current (Kv1.3 Mutant 3; 30 µM tannic acid): -16.81 ± 5.40 mV
Current at 0 (mV) (Kv1.3 Mutant 3; 100 µM tannic acid): 0.50 ± 0.07
change of tannic acid IC50 versus wild-type Kv1.3 (Kv1.3 Mutant 3; inhibition dose response): did not alter
Current at 0 (mV) (TREK-1 (KCNK2); 10 µM tannic acid, control 0.23 ± 0.03): 0.44 ± 0.08
Current at 0 (mV) (TREK-1 (KCNK2); 50 µM tannic acid): 0.89 ± 0.11
Current at 0 (mV) (TREK-1 (KCNK2); 100 µM tannic acid): 1.37 ± 0.14
Current at 0 (mV) (TREK-1 (KCNK2); 250 µM tannic acid): 1.86 ± 0.19
Current at 0 (mV) (TREK-1 (KCNK2); 500 µM tannic acid): 2.22 ± 0.24
increase in KCNK2 current (TREK-1 (KCNK2); at 500 µM, 0 mV): > 10 fold
EC50 (TREK-1 (KCNK2); current fold increase at 0 mV, read-out: EC50 for KCNK2 (TREK-1) activation): 143 ± 4 µM
